We go through 20 compounds from US7560468B2, “Substituted 1,4,8-triazaspiro[4,5]decan-2-one compounds” (Gruenenthal GmbH, priority 2004, dated 2009).

For one test, the target named is human CB2 receptor (Homo sapiens, UniProt P34972). Put plainly: Affinity to the cannabinoid receptor CB2, displacement of [3H]-CP 55,940. The following applies: for Inhibition CB2 10 μM, % inhibition: membranes of HEK 293EBNA cells with human CB2 receptor; for Ki: CB2, Cheng Prusoff correction of IC50; for inhibition at 10 µM: read-out: Inhibition CB2 10 μM, % inhibition. (In a radioligand displacement assay an active substance lowers the binding of a labelled ligand.)

Another test concerns the target T1, 5-HT transporter (Rattus norvegicus, UniProt P31652).
T1 construct: from tissue; host or cells: rat brain synaptosomes (marrow/medulla and pons), P2 fraction
Put plainly: Inhibition of 5-HT uptake in synaptosomes. The following applies: for inhibition at 1 µM: read-out: Uptake_5-HT, rat, 1 μM, % inhibition. It counts as biochemical.

Test [1] has as its system batrachotoxin (BTX) binding site of the sodium channel. The test can be described thus: Affinity to the batrachotoxin (BTX) binding site of the sodium channel. The following applies: rat cerebrocortex synaptosomes, [3H]-batrachotoxinin A20 α-benzoate 10 nM; test concentration not given.
The next test deals with NA transporter. Put plainly: Inhibition of noradrenalin uptake in synaptosomes. It counts as biochemical.

Sequence of human CB2 receptor (P34972 whole entry): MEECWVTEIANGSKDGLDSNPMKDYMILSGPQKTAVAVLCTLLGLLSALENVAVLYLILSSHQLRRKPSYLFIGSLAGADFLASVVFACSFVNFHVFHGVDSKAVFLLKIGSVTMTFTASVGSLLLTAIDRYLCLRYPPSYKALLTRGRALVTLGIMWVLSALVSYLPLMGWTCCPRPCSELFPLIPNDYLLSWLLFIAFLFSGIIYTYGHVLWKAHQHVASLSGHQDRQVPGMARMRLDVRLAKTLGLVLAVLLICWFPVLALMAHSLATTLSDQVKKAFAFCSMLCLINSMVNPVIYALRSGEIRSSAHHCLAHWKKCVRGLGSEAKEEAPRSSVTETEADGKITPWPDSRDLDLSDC
T1 sequence (P31652 whole entry): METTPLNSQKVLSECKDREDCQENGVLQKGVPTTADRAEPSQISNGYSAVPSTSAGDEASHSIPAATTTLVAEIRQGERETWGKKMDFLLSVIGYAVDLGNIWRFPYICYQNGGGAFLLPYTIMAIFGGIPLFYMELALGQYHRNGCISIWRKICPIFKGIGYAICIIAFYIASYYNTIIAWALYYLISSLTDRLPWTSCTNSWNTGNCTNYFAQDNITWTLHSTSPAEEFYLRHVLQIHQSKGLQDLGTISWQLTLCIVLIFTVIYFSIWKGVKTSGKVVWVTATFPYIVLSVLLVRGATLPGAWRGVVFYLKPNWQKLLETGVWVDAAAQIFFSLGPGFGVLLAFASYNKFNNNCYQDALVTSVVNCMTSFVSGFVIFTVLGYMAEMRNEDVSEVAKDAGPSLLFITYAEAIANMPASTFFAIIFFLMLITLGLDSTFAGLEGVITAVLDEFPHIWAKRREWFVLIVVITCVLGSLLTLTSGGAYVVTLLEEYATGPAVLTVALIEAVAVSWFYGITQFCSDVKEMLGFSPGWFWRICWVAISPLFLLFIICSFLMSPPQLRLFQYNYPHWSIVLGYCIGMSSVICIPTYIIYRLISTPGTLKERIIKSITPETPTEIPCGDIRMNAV
Experimental for human CB2 receptor: The radioligand used was tritium-labeled 5-(1,1-dimethylheptyl)-2-(5-hydroxypropyl)cyclohexyl)-1-alpha,2-beta,5-alpha)-phenol (^[3]H—CP 55,940 with 103.4 of Ci/mmol, 1 m Ci/mL). Determination was carried out in a test buffer comprising 50 mM of Tris-HCl, 2.5 mm of EDTA, 5 mm of MgCl2 and 1.0 mg/mL of fatty acid-free BSA. The test substances were in each case dissolved in DMSO.
The affinity of the compounds of the invention to the CB2 receptor is determined by their ability to displace ^[3]H—CP from 55,940 of CB2 receptors in membranes of HEK 293 EBNA cells. For this purpose 8 μg of membranes (20 mL of a solution of membranes in a concentration of 400 g/ml) are incubated in wells of a microtiter plate with a 0.33 nM of solution of [3]H-CP 55,949 (120 of Ci/mmol) in a total volume of test buffer of 200 μL for 90 minutes at 30° C.
Subsequently, either the test substances or WIN 55,212-2 for determination the non-specific binding are placed, dissolved in each case in dimethyl sulphoxide, in the wells so that in each case a concentration of the relevant substances of 10 μM is obtained.
Incubation is continued for a further 40 minutes at 30° C. dc. […] The filters are washed nine times with 0.5 mL of ice-cold washing buffer (50 nM of Tris-HCl, 5 mM of MgCl2, 2.5 mm of EDTA, 2% of BSA, pH 7.4), air-dried, placed in scintillation liquid, and the radioactivity is determined with the aid of a scintillation counter.
The percentage displacement of the radio-active ligand ^[3]H—CP 55,940 from its binding to the CB2 receptor is indicated as percentage inhibition of the specific binding. In order to determine Ki the IC50 inhibition concentrations are calculated based on of the percentage displacement achieved by the compounds of the general formula I to be tested at various concentrations causing a 50 percent displacement of the radioactive ligands.

Consider “1,3-Dibenzyl-8-(4-chlorobenzolsulfonyl)-1,4,8-triazaspiro[4,5]decan-2-one [Example 248]”, for which, at human CB2 receptor, the “Inhibition CB2 10 μM, % inhibition” value is 87% and the affinity corresponds to a Ki of 1.2 µM.

Regarding “1,3-Dibenzyl-8-(4-methoxy-benzolsulfonyl)-1,4,8-triazaspiro[4,5]decan-2-one [Example 249]”, on human CB2 receptor, the “Inhibition CB2 10 μM, % inhibition” value is 80% and the affinity corresponds to a Ki of 3.5 µM.

As for “8-Benzolsulfonyl-1,3-dibenzyl-1,4,8-triazaspiro[4,5]decan-2-one [Example 247]”, at human CB2 receptor, the “Inhibition CB2 10 μM, % inhibition” value stood at 72% and the Ki was determined as 4 µM.

Regarding `CC(C)C1NC2(CCN(S(=O)(=O)c3ccccc3Cl)CC2)NC1=O` (stereo not shown) [Example 8, 8-(2-Chlorobenzolsulfonyl)-3-isopropyl-1,4,8-triazaspiro[4,5]decan-2-one], the “Uptake_5-HT, rat, 1 μM, % inhibition” value at 5-HT transporter is 55%. At human CB2 receptor, the “Inhibition CB2 10 μM, % inhibition” value came to 41%.

Take `O=C1C(Cc2ccccc2)NC2(CCN(S(=O)(=O)c3cccs3)CC2)N1Cc1ccccc1` (stereo not shown) [Example 16, 1,3-Dibenzyl-8-(thiophen-2-sulfonyl)-1,4,8-triazaspiro[4,5]decan-2-one]: the “BTX Inhibition” value in test [1] is listed as 50. Further, the inhibition at 1 µM at 5-HT transporter turned out to be 82%. The inhibition at 10 µM at human CB2 receptor is 58%.

Turning to `O=C1C(Cc2ccccc2)NC2(CCN(S(=O)(=O)c3cc(Cl)sc3Cl)CC2)N1Cc1ccccc1` (stereo not shown) [Example 20, 1,3-Dibenzyl-8-(2,5-dichlorothiophen-3-sulfonyl)-1,4,8-triazaspiro[4,5]decan-2-one], the “BTX Inhibition” value in test [1] turned out to be 54. Also, the inhibition at 1 µM at 5-HT transporter came to 81%. In addition, the inhibition at 10 µM on human CB2 receptor came out at 66%.

With `Cc1cc(C)c(C)c(S(=O)(=O)N2CCC3(CC2)NC(Cc2ccccc2)C(=O)N3Cc2ccccc2)c1C` (stereo not shown) [Example 24, 1,3-Dibenzyl-8-(2,3,5,6-tetramethylbenzolsulfonyl)-1,4,8-triazaspiro[4,5]decan-2-one], the “BTX Inhibition” value in test [1] is recorded as 67. Also, the “Uptake_5-HT, rat, 1 μM, % inhibition” value on 5-HT transporter was 66%. Also, the “Inhibition CB2 10 μM, % inhibition” value on human CB2 receptor amounted to 56%.

With `CCCCN1C(=O)C(Cc2ccccc2)NC12CCN(S(=O)(=O)c1ccc(C(C)(C)CC)cc1)CC2` (stereo not shown) [Example 28, 3-Benzyl-1-butyl-8-[4-(1,1-dimethylpropyl)benzolesulfonyl]-1,4,8-triazaspiro[4,5]decan-2-one], in test [1], the “BTX Inhibition” value was 41. Further, the “Uptake_5-HT, rat, 1 μM, % inhibition” value at 5-HT transporter was determined as 75%. The “Inhibition CB2 10 μM, % inhibition” value at human CB2 receptor is 40%.

As for `COc1cc(C)c(S(=O)(=O)N2CCC3(CC2)NC(Cc2ccccc2)C(=O)N3Cc2ccccc2)c(C)c1C` (stereo not shown) [Example 31, 1,3-Dibenzyl-8-(4-methoxy-2,3,6-trimethylbenzolsulfonyl)-1,4,8-triazaspiro[4,5]decan-2-one], the “BTX Inhibition” value in test [1] is listed as 82. Moreover, the “Uptake_5-HT, rat, 1 μM, % inhibition” value on 5-HT transporter worked out at 67%. Also, the “Inhibition CB2 10 μM, % inhibition” value on human CB2 receptor was 57%.

For the compound `CCc1ccc(S(=O)(=O)N2CCC3(CC2)NC(Cc2ccccc2)C(=O)N3Cc2ccccc2)cc1` (stereo not shown) [Example 35, 1,3-Dibenzyl-8-(4-ethylbenzolsulfonyl)-1,4,8-triazaspiro[4,5]decan-2-one], the “BTX Inhibition” value in test [1] turned out to be 54. Besides, the “Uptake_5-HT, rat, 1 μM, % inhibition” value at 5-HT transporter came out at 79%. Moreover, the “Inhibition CB2 10 μM, % inhibition” value at human CB2 receptor turned out to be 61%.

Take `CCCCN1C(=O)C(Cc2ccccc2)NC12CCN(S(=O)(=O)c1cccc(Cl)c1)CC2` (stereo not shown) [Example 36, 3-Benzyl-1-butyl-8-(3-chlorobenzolsulfonyl)-1,4,8-triazaspiro[4,5]decan-2-one]: the “BTX Inhibition” value in test [1] was 49. The “Uptake_5-HT, rat, 1 μM, % inhibition” value on 5-HT transporter amounted to 65%. For the same compound, the “Inhibition CB2 10 μM, % inhibition” value on human CB2 receptor turned out to be 40%.

Consider `CSCCC1NC2(CCN(S(=O)(=O)c3ccc(F)cc3F)CC2)N(Cc2cc(C)cc(C)c2)C1=O` (stereo not shown) [Example 42, 8-(2,4-Difluorobenzolsulfonyl)-1-(3,5-dimethylbenzyl)-3-(2-methylsulfanylethyl)-1,4,8-triazaspiro[4,5]decan-2-one], for which the “BTX Inhibition” value in test [1] came out at 56. The “Inhibition CB2 10 μM, % inhibition” value on human CB2 receptor turned out to be 48%.

As for `O=C1C(Cc2ccccc2)NC2(CCN(S(=O)(=O)c3ccc([N+](=O)[O-])cc3)CC2)N1Cc1ccccc1` (stereo not shown) [Example 43, 1,3-Dibenzyl-8-(4-nitrobenzolsulfonyl)-1,4,8-triazaspiro[4,5]decan-2-one], in test [1], the “BTX Inhibition” value is 51. Further, the “Uptake_5-HT, rat, 1 μM, % inhibition” value at 5-HT transporter is listed as 71%. Also, at human CB2 receptor, the “Inhibition CB2 10 μM, % inhibition” value was 62%.

Take `CCCCOc1ccc(S(=O)(=O)N2CCC3(CC2)NC(Cc2ccccc2)C(=O)N3CC(=O)OCC)cc1` (stereo not shown) [Example 73, Ethyl[3-benzyl-8-(4-butoxy-benzolsulfonyl)-2-oxo-1,4,8-triazaspiro[4,5]dec-1-yl]-acetate]: in test [1], the “BTX Inhibition” value was found to be 52. The “Uptake_5-HT, rat, 1 μM, % inhibition” value on 5-HT transporter was 80%. Further, the “Inhibition CB2 10 μM, % inhibition” value on human CB2 receptor is listed as 46%.

Take `CSCCC1NC2(CCN(S(=O)(=O)c3ccccc3Cl)CC2)N(Cc2ccccc2[N+](=O)[O-])C1=O` (stereo not shown) [Example 82, 8-(2-Chlorobenzolsulfonyl)-3-(2-methylsulfanylethyl)-1-(2-nitrobenzyl)-1,4,8-triazaspiro[4,5]decan-2-one]: in test [1], the “BTX Inhibition” value came to 71. The “Uptake_5-HT, rat, 1 μM, % inhibition” value on 5-HT transporter came to 49%. For the same compound, at human CB2 receptor, the “Inhibition CB2 10 μM, % inhibition” value was found to be 56%.

Turning to `CCCCN1C(=O)C(C(C)C)NC12CCN(C(=S)NC(C)C)CC2` (stereo not shown) [Example 107, 1-Butyl-3-isopropyl-2-oxo-1,4,8-triazaspiro[4,5]decan-8-thiocarboxylic acid isopropylamide], on 5-HT transporter, the inhibition at 1 µM was found to be 28%. The inhibition at 10 µM at human CB2 receptor was determined as 56%.

Consider `CSCCC1NC2(CCN(C(=S)Nc3cc(C(F)(F)F)ccc3Cl)CC2)N(Cc2ccccc2C#N)C1=O` (stereo not shown) [Example 147, 1-(2-Cyanobenzyl)-3-(2-methylsulfanylethyl)-2-oxo-1,4,8-triazaspiro[4,5]decan-8-thiocarboxylic acid (2-chloro-5-trifluoromethylbenzol)amide], for which the “BTX Inhibition” value in test [1] was 81. Also, the “Uptake_5-HT, rat, 1 μM, % inhibition” value on 5-HT transporter is given as 33%. Further, the “Inhibition CB2 10 μM, % inhibition” value at human CB2 receptor amounted to 48%.

With `CC(C)C1NC2(CCN(C(=S)NCc3ccc(F)cc3)CC2)N(Cc2ccccc2)C1=O` (stereo not shown) [Example 179, 1-Benzyl-3-isopropyl-2-oxo-1,4,8-triazaspiro[4,5]decan-8-thiocarboxylic acid 4-fluorobenzylamide], the “BTX Inhibition” value in test [1] amounted to 58. Moreover, the inhibition at 1 µM on 5-HT transporter is 47%. Besides, on human CB2 receptor, the inhibition at 10 µM amounted to 43%.

`CSCCC1NC2(CCN(C(=O)Nc3cccc(C#N)c3)CC2)N(Cc2ccc(F)cc2)C1=O` (stereo not shown) [Example 244, 1-(4-Fluorobenzyl)-3-(2-methylsulfanylethyl)-2-oxo-1,4,8-triazaspiro[4,5]decan-8-carboxylic acid (3-cyanobenzol)amide]: the “BTX Inhibition” value in test [1] is listed as 47. Further, at 5-HT transporter, the “Uptake_5-HT, rat, 1 μM, % inhibition” value worked out at 52%. For the same compound, the “Uptake (NA), rat, 10 μM, % inhibition” value with NA transporter is recorded as 32%.

For the compound `CS(=O)(=O)N1CCC2(CC1)NC(Cc1ccccc1)C(=O)N2Cc1ccccc1` (stereo not shown) [Example 246, 1,3-Dibenzyl-8-methansulfonyl-1,4,8-triazaspiro[4,5]decan-2-one], the inhibition at 10 µM at human CB2 receptor was 50%.

One may read the Ki as a dissociation constant, usually derived from enzyme kinetics or from competition with a known ligand. Lower therefore signals tighter binding. As usually defined, the inhibition is the change of the read-out against control, counted positive when it falls.
